PubChem BioAssay (NCI)
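Cells were grown in 96-well plates and exposed to each compound for 48 hours at five concentrations; endpoints were interpolated linearly between bracketing concentrations, or set to the highest concentration if not reached. The concentration for 50% growth inhibition is given as GI50. TGI denotes the concentration required for complete inhibition of growth.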

Legend:
Experiment in all cases: NCI-60 cell line screen, 48 h
OVCAR-5 ovarian = tested on: OVCAR-5 ovarian
CAKI-1 renal = tested on: CAKI-1 renal
CCRF-CEM leukemia = tested on: CCRF-CEM leukemia
UACC-62 melanoma = tested on: UACC-62 melanoma
M14 melanoma = tested on: M14 melanoma
EKVX NSCLC = tested on: EKVX NSCLC
NCI-H460 lung = tested on: NCI-H460 lung
NCI/ADR-RES ovarian = tested on: NCI/ADR-RES ovarian
NCI-H522 lung = tested on: NCI-H522 lung
MCF7 breast = tested on: MCF7 breast

Cc1cccc(=O)c([O-])c1.Cc1cccc(=O)c([O-])c1.Cc1cccc(=O)c([O-])c1.Cc1cccc(=O)c([O-])c1.[Th+4]
TGI (OVCAR-5 ovarian): > 100 µM | TGI (CAKI-1 renal): 86.6 µM | GI50 (CCRF-CEM leukemia): 2.52 µM | TGI (CCRF-CEM leukemia): 49.7 µM | TGI (UACC-62 melanoma): 19.6 µM | TGI (M14 melanoma): 42.1 µM | TGI (EKVX NSCLC): > 89.1 µM | TGI (NCI-H460 lung): > 60.7 µM

O=c1oc2ccccc2c(O)c1C(c1ccc(O)cc1)c1c(O)c2ccccc2oc1=O
TGI (CAKI-1 renal): > 100 µM | TGI (NCI/ADR-RES ovarian): > 100 µM | TGI (CCRF-CEM leukemia): > 100 µM | TGI (NCI-H522 lung): 62.8 µM | TGI (UACC-62 melanoma): > 100 µM | TGI (EKVX NSCLC): > 100 µM | TGI (NCI-H460 lung): > 100 µM

CCn1c(O)c(C(=O)NC(C)c2ccc([N+](=O)[O-])cc2)c(=O)n(CC)c1=S (configuration not stated)
TGI (OVCAR-5 ovarian): 6.77 µM | TGI (CAKI-1 renal): 10.1 µM | TGI (CCRF-CEM leukemia): 11.9 µM | TGI (MCF7 breast): 9.19 µM | TGI (UACC-62 melanoma): 5.8 µM | TGI (M14 melanoma): 6.04 µM | TGI (EKVX NSCLC): 12.7 µM | TGI (NCI-H460 lung): 9.36 µM

COc1ccc(C2C3=CONC3CC3CCCCC32)cc1 (configuration not stated)
TGI (OVCAR-5 ovarian): > 100 µM | TGI (CAKI-1 renal): > 100 µM | TGI (CCRF-CEM leukemia): > 100 µM | TGI (NCI-H522 lung): > 100 µM | TGI (MCF7 breast): > 100 µM | TGI (UACC-62 melanoma): > 100 µM | TGI (M14 melanoma): > 100 µM | TGI (NCI-H460 lung): > 100 µM

COc1ccc(C[C@H]2COC(=O)[C@@H]2Cc2ccccc2)cc1OC
TGI (OVCAR-5 ovarian): > 100 µM | TGI (NCI/ADR-RES ovarian): > 100 µM | TGI (CCRF-CEM leukemia): > 100 µM | TGI (MCF7 breast): > 100 µM | TGI (EKVX NSCLC): > 100 µM | TGI (NCI-H460 lung): > 100 µM

Cc1ccc(Cl)c2c(=O)cc(-c3ccccc3)[nH]c12
TGI (OVCAR-5 ovarian): > 100 µM | TGI (CAKI-1 renal): > 100 µM | TGI (CCRF-CEM leukemia): > 100 µM | TGI (NCI-H522 lung): > 100 µM | TGI (UACC-62 melanoma): > 100 µM | TGI (M14 melanoma): > 100 µM | TGI (NCI-H460 lung): > 100 µM

COc1ccccc1NC(=O)CSC(N)=O
TGI (OVCAR-5 ovarian): > 100 µM | TGI (CAKI-1 renal): > 100 µM | TGI (CCRF-CEM leukemia): > 100 µM | TGI (NCI-H522 lung): > 100 µM | TGI (UACC-62 melanoma): 68.3 µM | TGI (M14 melanoma): > 100 µM | TGI (EKVX NSCLC): > 100 µM | TGI (NCI-H460 lung): > 100 µM

C=C1CN=C(Nc2ccc(F)cc2F)S1
TGI (OVCAR-5 ovarian): > 100 µM | TGI (CAKI-1 renal): > 100 µM | TGI (NCI/ADR-RES ovarian): > 100 µM | TGI (CCRF-CEM leukemia): 66.1 µM | TGI (MCF7 breast): > 100 µM | TGI (EKVX NSCLC): > 100 µM | TGI (NCI-H460 lung): > 100 µM

CCOC(=O)/C(C1=N[C@H](C(=O)OCC)CS1)=C(\O)c1ccccc1
TGI (OVCAR-5 ovarian): > 100 µM | TGI (CAKI-1 renal): > 100 µM | TGI (CCRF-CEM leukemia): > 100 µM | TGI (NCI-H522 lung): > 100 µM | TGI (UACC-62 melanoma): > 100 µM | TGI (M14 melanoma): > 100 µM | TGI (EKVX NSCLC): > 100 µM | TGI (NCI-H460 lung): > 100 µM

C/C(=N\NC(=O)c1ccncc1)c1cccc(C(F)(F)F)c1
TGI (CAKI-1 renal): > 10 µM | TGI (NCI/ADR-RES ovarian): > 10 µM | TGI (CCRF-CEM leukemia): > 10 µM | TGI (MCF7 breast): > 10 µM | TGI (UACC-62 melanoma): > 10 µM | TGI (M14 melanoma): > 10 µM | TGI (EKVX NSCLC): > 10 µM | TGI (NCI-H460 lung): > 10 µM

Nc1cc2ncnc(Nc3cccc(Br)c3)c2cn1
TGI (OVCAR-5 ovarian): > 100 µM | TGI (CAKI-1 renal): > 100 µM | TGI (NCI/ADR-RES ovarian): > 100 µM | TGI (CCRF-CEM leukemia): > 100 µM | TGI (UACC-62 melanoma): > 100 µM | TGI (M14 melanoma): > 100 µM | TGI (NCI-H460 lung): > 100 µM
